Data as given in publication PMC10265664, “Peptide Antibiotic–Polyphosphate Nanoparticles: A Promising Strategy to Overcome the Enzymatic and Mucus Barrier of the Intestine” (Biomacromolecules, 2023).
Read-outs that look alike come from different tables or passages of the source.

Columns and labels:
[1] = test system: lipase from porcine pancreas; test: Degradation study with lipase; assay type: in vitro ADME; details: porcine pancreatic lipase, 37 °C, sampling 0-24 h, absorbance 210 nm, mean n = 3
Description: Enzymatic degradation of free PMB and PMB being incorporated into NPs was evaluated with lipase. Lipase solution was prepared by dissolving 0.5 g of the enzyme in 10 mL of digestion medium (2 mM Tris buffer with 5 mM CaCl2 and 150 mM NaCl). After homogenization for 10 min, the enzyme mixture was centrifuged at 12,000 rpm (Sigma 3-18KS, Austria) for 15 min at 4 °C.[17] Thereafter, 2 mL of the supernatant liquid was added to 4 mL of 0.01% (m/v) PMB–PP NPs suspension and incubated at 37 °C under constant shaking using a ThermoMixer (Eppendorf, Hamburg, Germany). Aliquots of 100 μL were withdrawn at predetermined time points (0, 1, 2, 4, 6, 12, and 24 h) and transferred to a 96-well microplate (μClear 96-well plates, Greiner bio-one, Austria). PMB–PP NPs and PMB suspension without lipase served as negative control and were incubated under the same conditions. […] The same settings were applied for PMB. The PMB concentration was determined using a calibration curve with increasing concentrations of PMB ranging from 0.78 to 50 μM.
Degradation was evaluated by quantifying the % remaining amount of PMB by the following equation: [drawing 3]

[2] = cited from earlier work
Text: The ionic strength of the polycation plays also an important role in the formation of such particles. […] PMB–PP NPs could therefore be formed.

[3] = test system: 50 multidrug-resistant Gram-negative bacterial strains; set-up: method as in PMID 33045992; details: cited from earlier work

## Polymyxin B sulfate [PMB]
[1]
  PMB degraded after lipase exposure: 39.32%
[2]
  isoelectric point: 10.74
[3]; 44 of 50 multidrug-resistant Gram-negative bacterial strains
  MICs (minimum inhibitory concentrations): ≥ 4 µg/mL
[3]; the other 6 of 50 multidrug-resistant Gram-negative bacterial strains
  MICs (minimum inhibitory concentrations): 2 µg/mL
